IC50 data for 23 compounds are collected here from patent US20260217697A1, “COMPOUNDS COMPRISING HETEROARYL RINGS AND COMPOSITIONS AND METHODS THEREOF” (lonGen Therapeutics Co., Ltd., priority 2022, published 2026).

Each structure is given as a SMILES string.

For this test, the target named is T1, hTRPV3 (Homo sapiens, UniProt Q8NET8).
T1 construct: The commercially available plasmid with the full-length cDNA of hTRPV3 (791 aa) (NM_001258205.2); host or cells: HEK293T
T1 sequence (Q8NET8 1-791 isoform Q8NET8-2): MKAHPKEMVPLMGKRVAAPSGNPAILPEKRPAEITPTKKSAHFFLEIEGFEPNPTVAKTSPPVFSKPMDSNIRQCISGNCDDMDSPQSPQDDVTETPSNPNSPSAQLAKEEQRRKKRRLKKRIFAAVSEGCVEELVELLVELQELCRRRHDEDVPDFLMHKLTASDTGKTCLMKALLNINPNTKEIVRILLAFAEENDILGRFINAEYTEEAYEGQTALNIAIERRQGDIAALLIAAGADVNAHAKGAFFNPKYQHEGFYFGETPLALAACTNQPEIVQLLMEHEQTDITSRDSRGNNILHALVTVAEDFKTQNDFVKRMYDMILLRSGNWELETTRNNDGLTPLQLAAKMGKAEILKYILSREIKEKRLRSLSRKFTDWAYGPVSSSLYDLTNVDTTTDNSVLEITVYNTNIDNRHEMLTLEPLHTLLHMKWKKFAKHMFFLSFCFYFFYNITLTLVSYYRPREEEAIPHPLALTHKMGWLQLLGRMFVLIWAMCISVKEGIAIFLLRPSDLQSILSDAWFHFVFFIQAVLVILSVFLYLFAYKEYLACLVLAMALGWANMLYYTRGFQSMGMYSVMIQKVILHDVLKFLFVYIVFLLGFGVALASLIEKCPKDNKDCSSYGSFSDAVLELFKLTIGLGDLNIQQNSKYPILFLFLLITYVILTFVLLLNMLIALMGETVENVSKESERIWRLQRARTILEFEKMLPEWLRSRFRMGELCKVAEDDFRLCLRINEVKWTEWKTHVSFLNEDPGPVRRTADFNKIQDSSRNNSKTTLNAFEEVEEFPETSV
In words: Whole-cell patch-clamp recording of hTRPV3 current in transfected HEK293T cells (2-APB induced). To be noted: current induced by 300 μM 2-APB, compounds tested up to 10 μM, room temperature. The format is cell-based. The method, then: Various technologies can be utilized to assess TRPV3 activation in accordance with the present disclosure. For example, in some embodiments, compounds are assessed in in vitro patch clamp experiments. Certain useful procedures are described herein as examples.
In some embodiments, whole-cell patch-clamp recordings were used to detect the current through hTRPV3 channels in the HEK293T cell line transfected with hTRPV3 cDNA and evaluate the exact blocking effect of compounds on hTRPV3. In some embodiments, a perfusion system was adopted to control the extracellular solution, including the addition of the agonist and different antagonists.
HEK293T cells were cultured in a Dulbecco's modified Eagle's medium containing 10% fetal bovine serum (Thermo Scientific) and 1% penicillin/streptomycin (Thermo Scientific) at 37° C. with 5% CO2. The commercially available plasmid with the full-length cDNA of hTRPV3 (791 aa) (NM_001258205.2) was purchased from OriGene Technologies. The transfection of hTRPV3 plasmids was conducted using Lipofectamine™ 3000 following the manufacturer's instructions (Invitrogen).
Whole-cell patch-clamp experiments were performed 18 h post-transfection, using a MultiClamp 700B amplifier driven by pClamp 11 software (Molecular Devices). In order to achieve good single-cell physical separation, HEK293T cells with hTRPV3 expression were digested and then re-plated at low density on glass coverslips. Electrodes were pulled from borosilicate glass with a P-97 micropipette puller (Sutter Instruments) and those with resistances of 3-5 MΩ are used for experiments. In some embodiments, an Ag—AgCl wire was used as a reference electrode and signals are filtered using a 2.9 kHz low-pass Bessel filter. Membrane potential was held at 0 mV. For recording of agonist-induced activation and inhibition by different test compounds, currents were elicited by a protocol consisting of a 400-ms step to +80 mV, followed by a 400-ms step to −80 mV at 2-s intervals. both pipette and bath solutions contained 130 mM NaCl, 0.3 mM EDTA, and 3 mM HEPES (buffered to pH 7.4 with NaOH). All recordings were made at room temperature.
All patch-clamp recordings were analyzed using the Clampfit software and GraphPad Prism 6.0 software. Specifically, data are analyzed by calculating the degree of current amplitude after the test compound addition compared with the unblocked agonist-induced current amplitude. The resulting blocking percentage at each concentration was used to make a concentration-response analysis and fitted to the Hill equation: blocking percentage=minimum blocking percentage+ (maximum blocking percentage-minimum blocking percentage)/(1+10^(Hill slope* […])). The minimum blocking percentage is 0% and maximum blocking percentage is 100%, while the Hill slope and the IC50 were determined as the curve fitting routine. Compounds of interest were tested against hTRPV3 at concentrations up to 10 μM, and certain data was used to estimate IC50 as described herein.
For orientation: Patch clamp records ionic current or voltage across a cell membrane.
As to `COc1ncnc(OC)c1C(=O)Nc1nc2c(s1)C1(CCNCC1)Oc1cc(C(F)(F)F)ccc1-2` [compound 45, 4,6-dimethoxy-N-(7-(trifluoromethyl)spiro[chromeno[4,3-d]thiazole-4,4′-piperidin]-2-yl)pyrimidine-5-carboxamide], the concentration for half-maximal inhibition (IC50) was ≥ 10000 nM.
`COc1ncnc(OC)c1C(=O)Nc1nc2c(s1)C1(CCN(C)CC1)Oc1cc(C(F)(F)F)ccc1-2` [compound 46, 4,6-dimethoxy-N-(1′-methyl-7-(trifluoromethyl)spiro[chromeno[4,3-d]thiazole-4,4′-piperidin]-2-yl)pyrimidine-5-carboxamide] gave an IC50 of 1000 to 10000 nM.
The same measure for `CCOc1ncnc(OCC)c1C(=O)Nc1nc2c(s1)C(CC)(CC)Oc1cc(C(F)(F)F)ccc1-2` [compound 47, N-(4,4-diethyl-7-(trifluoromethyl)-4H-chromeno[4,3-d]thiazol-2-yl)-4,6-diethoxypyrimidine-5-carboxamide]: 100 to 1000 nM; for `CCC1(CC)Oc2cc(C(F)(F)F)ccc2-c2nc(NC(=O)c3c(OCC(F)(F)F)ncnc3OCC(F)(F)F)sc21` [compound 48, N-(4,4-diethyl-7-(trifluoromethyl)-4H-chromeno[4,3-d]thiazol-2-yl)-4,6-bis(2,2,2-trifluoroethoxy)pyrimidine-5-carboxamide]: ≥ 10000 nM.
The same measure for `CCC1(CC)Oc2cc(Br)ccc2-c2nc(NC(=O)c3c(OC)ncnc3OC)sc21` [compound 49, N-(7-bromo-4,4-diethyl-4H-chromeno[4,3-d]thiazol-2-yl)-4,6-dimethoxypyrimidine-5-carboxamide]: 1000 to 10000 nM; for `CCC1(CC)Oc2cc(C#N)ccc2-c2nc(NC(=O)c3c(OC)ncnc3OC)sc21` [compound 50, N-(7-cyano-4,4-diethyl-4H-chromeno[4,3-d]thiazol-2-yl)-4,6-dimethoxypyrimidine-5-carboxamide]: 100 to 1000 nM.
The figure for `CCC1(CC)Oc2cc3c(cc2-c2nc(NC(=O)c4c(OC)ncnc4OC)sc21)OCO3` [compound 51, N-(4,4-diethyl-4H-[1,3]dioxolo[4′,5′: 6,7]chromeno[4,3-d]thiazol-2-yl)-4,6-dimethoxypyrimidine-5-carboxamide] is ≥ 10000 nM.
In turn, `CCC1(CC)Oc2cc(C(F)(F)F)ccc2-c2nc(NC(=O)c3c(C)ncnc3C)sc21` [compound 52, N-(4,4-diethyl-7-(trifluoromethyl)-4H-chromeno[4,3-d]thiazol-2-yl)-4,6-dimethylpyrimidine-5-carboxamide] showed an IC50 of 1000 to 10000 nM.
Take `CCC1(CC)Oc2cc(C(F)(F)F)ccc2-c2nc(N(C)C(=O)c3c(OC)ncnc3OC)sc21` [compound 53]: the IC50 is ≥ 10000 nM.
The figure for `CCC1(CC)Oc2cc(C3CC3)ccc2-c2nc(NC(=O)c3c(OC)ncnc3OC)sc21` [compound 54, N-(7-cyclopropyl-4,4-diethyl-4H-chromeno[4,3-d]thiazol-2-yl)-4,6-dimethoxypyrimidine-5-carboxamide] is 100 to 1000 nM; for `C=C(C)c1ccc2c(c1)OC(CC)(CC)c1sc(NC(=O)c3c(OC)ncnc3OC)nc1-2` [compound 55, N-(4,4-diethyl-7-(prop-1-en-2-yl)-4H-chromeno[4,3-d]thiazol-2-yl)-4,6-dimethoxypyrimidine-5-carboxamide] it is 100 to 1000 nM; for `CCC1(CC)Oc2cc(C(F)(F)F)ccc2-c2nc(NS(=O)(=O)c3c(OC)ncnc3OC)sc21` [compound 56] it is ≥ 10000 nM.
The compound `CCC1(CC)Oc2cc(C(F)(F)F)ccc2-c2nc(NC(=O)c3c(C)ncnc3OC)sc21` [compound 57, N-(4,4-diethyl-7-(trifluoromethyl)-4H-chromeno[4,3-d]thiazol-2-yl)-4-methoxy-6-methylpyrimidine-5-carboxamide] displayed an IC50 of 100 to 1000 nM.
Regarding `CCC1(CC)Oc2cc(N3CCOCC3)ccc2-c2nc(NC(=O)c3c(OC)ncnc3OC)sc21` [compound 58, N-(4,4-diethyl-7-morpholino-4H-chromeno[4,3-d]thiazol-2-yl)-4,6-dimethoxypyrimidine-5-carboxamide], the IC50 is 1000 to 10000 nM.
Consider `COc1ncnc(OC)c1C(=O)Nc1nc2c(s1)C1(CCOCC1)Oc1cc(C(F)(F)F)ccc1-2` [compound 59, 4,6-dimethoxy-N-(7-(trifluoromethyl)-2′,3′,5′,6′-tetrahydrospiro[chromeno[4,3-d]thiazole-4,4′-pyran]-2-yl)pyrimidine-5-carboxamide], for which the 50% inhibitory concentration (IC50) was in the range of 100 to 1000 nM.
The same measure for `CCC1(CC)Oc2nc(C(F)(F)F)ccc2-c2nc(NC(=O)c3c(OC)ncnc3OC)sc21` [compound 60, N-(4,4-diethyl-7-(trifluoromethyl)-4H-thiazolo[4′,5′: 4,5]pyrano[2,3-b]pyridin-2-yl)-4,6-dimethoxypyrimidine-5-carboxamide]: 100 to 1000 nM.
On to `CCC1(CC)Oc2cc(C(C)(C)O)ccc2-c2nc(NC(=O)c3c(OC)ncnc3OC)sc21` [compound 61, N-(4,4-diethyl-7-(2-hydroxypropan-2-yl)-4H-chromeno[4,3-d]thiazol-2-yl)-4,6-dimethoxypyrimidine-5-carboxamide], for which the IC50 was in the range of 1000 to 10000 nM.
The figure for `CCOC(=O)c1ccc2c(c1)OC(CC)(CC)c1sc(NC(=O)c3c(OC)ncnc3OC)nc1-2` [compound 62, ethyl 2-(4,6-dimethoxypyrimidine-5-carboxamido)-4,4-diethyl-4H-chromeno[4,3-d]thiazole-7-carboxylate] is 1000 to 10000 nM.
As for `COc1ncnc(OC)c1C(=O)Nc1nc2c(s1)C1(CN(C(=O)OC(C)(C)C)C1)Oc1cc(C(F)(F)F)ccc1-2` [compound 63, tert-butyl 2′-(4,6-dimethoxypyrimidine-5-carboxamido)-7′-(trifluoromethyl)spiro[azetidine-3,4′-chromeno[4,3-d]thiazole]-1-carboxylate], the IC50 was < 100 nM.
The figure for `COc1ncnc(OC)c1C(=O)Nc1nc2c(s1)C1(CCN(C(C)=O)CC1)Oc1cc(C(F)(F)F)ccc1-2` [compound 64, N-(1′-acetyl-7-(trifluoromethyl)spiro[chromeno[4,3-d]thiazole-4,4′-piperidin]-2-yl)-4,6-dimethoxypyrimidine-5-carboxamide] is 100 to 1000 nM; for `COc1ncnc(OC)c1C(=O)Nc1nc2c(s1)C1(COC1)Oc1cc(C(F)(F)F)ccc1-2` [compound 65, 4,6-dimethoxy-N-(7-(trifluoromethyl)spiro[chromeno[4,3-d]thiazole-4,3′-oxetan]-2-yl)pyrimidine-5-carboxamide] it is 100 to 1000 nM; for `COCC1(COC)Oc2cc(C(F)(F)F)ccc2-c2nc(NC(=O)c3c(OC)ncnc3OC)sc21` [compound 66, N-(4,4-bis(methoxymethyl)-7-(trifluoromethyl)-4H-chromeno[4,3-d]thiazol-2-yl)-4,6-dimethoxypyrimidine-5-carboxamide] it is 100 to 1000 nM.
The figure for `COc1ncnc(OC)c1C(=O)Nc1nc2c(s1)C1(CNC1)Oc1cc(C(F)(F)F)ccc1-2` [compound 67, 4,6-dimethoxy-N-(7′-(trifluoromethyl)spiro[azetidine-3,4′-chromeno[4,3-d]thiazol]-2′-yl)pyrimidine-5-carboxamide] is ≥ 10000 nM.

The IC50 is the concentration that inhibits the measured activity by half. Read a low IC50 as inhibition by little substance.
